Measurements reported in patent US9512120B2, “Microbicidally active imidazopyridine derivatives” (Syngenta Participations AG, priority 2013, dated 2016).

Assays:
Pyrenophora teres = Pyrenophora teres / barley / leaf disc preventative (net blotch); assay type: in vivo; conditions: foliar, barley leaf segments cv Hasso, inoculated two days after application, assessed 5-7 days after application, read-out: control of Pyrenophora teres (disease control compared to untreated)
Method: Pyrenophora Teres/Barley/Leaf Disc Preventative (Net Blotch): Barley leaf segments cv Hasso are placed on agar in a 24-well plate and sprayed with formulated test compound diluted in water at an application rate of 200 ppm. The leaf segments are inoculated with a spore suspension of the fungus two days after application of the test solution. The inoculated leaf segments are incubated at 20° C. and 65% relative humidity under a light regime of 12/12 h (light/dark) in a climate cabinet and the activity of a compound is assessed as disease control compared to untreated when an appropriate level of disease damage appears in untreated check leaf segments (5-7 days after application).

[1] = test system: Botryotinia fuckeliana (Botrytis cinerea); experiment: Botryotinia fuckeliana (Botrytis cinerea) / liquid culture (gray mould); assay type: cell-based; conditions: Vogels broth, 24° C., 3-4 days after application, read-out: control of Botryotinia fuckeliana (inhibition of growth, photometric)
Method: (§1) Botryotinia Fuckeliana (Botrytis cinerea)/Liquid Culture (Gray Mould): Conidia of the fungus from cryogenic storage were directly mixed into nutrient broth (Vogels broth). After placing a DMSO solution of test compound into a 96-well microtiter plate at an application rate of 200 ppm, the nutrient broth containing the fungal spores was added. The test plates were incubated at 24° C. and the inhibition of growth was determined photometrically 3-4 days after application.

[2] = test system: Mycosphaerella graminicola (Septoria tritici); experiment: Mycosphaerella graminicola (Septoria tritici) / liquid culture (Septoria blotch); assay type: cell-based; conditions: Zymoseptoria tritici, PDB, 24° C., 4-5 days after application, read-out: control of Mycosphaerella graminicola (inhibition of growth, photometric)
Method: as §1, with “Mycosphaerella graminicola (Septoria tritici)/Liquid” for “Botryotinia Fuckeliana (Botrytis cinerea)/Liquid”, “(Septoria Blotch):” for “(Gray Mould):”, “(PDB potato dextrose” for “(Vogels”, “4-5” for “3-4”

Gaeumannomyces graminis = Gaeumannomyces graminis / liquid culture (take-all of cereals); assay type: cell-based; conditions: PDB, 24° C., 4-5 days after application, read-out: control of Gaeumannomyces graminis (inhibition of growth, photometric)
Method: (§2) Gaeumannomyces graminis/Liquid Culture (Take-all of Cereals): Mycelial fragments of the fungus from cryogenic storage were directly mixed into nutrient broth (PDB potato dextrose broth). After placing a DMSO solution of test compound into a 96-well microtiter plate at an application rate of 200 ppm, the nutrient broth Cp.33, containing the fungal spores is added. The test plates were incubated at 24° C. and the inhibition of growth was determined photometrically 4-5 days after application.

[3] = test system: Thanatephorus cucumeris (Rhizoctonia solani); experiment: Thanatephorus cucumeris (Rhizoctonia solani) / liquid culture (foot rot, damping-off); assay type: cell-based; conditions: PDB, 24° C., 3-4 days after application, read-out: control of Thanatephorus cucumeris (inhibition of growth, photometric)
Method: Thanatephorus cucumeris (Rhizoctonia solani)/Liquid Culture (Foot Rot, Damping-Off): Mycelia fragments of a newly grown liquid culture of the fungus are directly mixed into nutrient broth (PDB potato dextrose broth). After placing a DMSO solution of the test compounds into a 96-well microtiter plate at an application rate of 200 ppm, the nutrient broth containing the fungal material was added. The test plates were incubated at 24° C. and the inhibition of growth was determined photometrically 3-4 days after application.

[4] = test system: Puccinia recondita f. sp. Tritici; experiment: Puccinia recondita f. sp. tritici / wheat / leaf disc preventative (brown rust); assay type: in vivo; conditions: foliar, wheat leaf segments cv Kanzler, inoculated 1 day after application, assessed 7-9 days after application, read-out: control of Puccinia recondita f. sp. Tritici (percent disease control compared to untreated)
Method: Puccinia recondita f. Sp. Tritici/Wheat/Leaf Disc Preventative (Brown Rust): Wheat leaf segments cultivated variety (cv) Kanzler were placed on agar in 24-well plates and sprayed with formulated test compound diluted in water at an application rate of 200 ppm. The leaf disks were inoculated with a spore suspension of the fungus 1 day after application. The inoculated leaf segments were incubated at 19° C. and 75% relative humidity under a light regime of 12/12 h (light/dark) in a climate cabinet and the activity of a compound was assessed as percent disease control compared to untreated when an appropriate level of disease damage appears in untreated check leaf segments (7-9 days after application).

[5] = test system: Monographella nivalis (Microdochium nivale); experiment: Monographella nivalis (Microdochium nivale) / liquid culture (foot rot cereals); assay type: cell-based; conditions: PDB, 24° C., 4-5 days after application, read-out: control of Monographella nivalis (inhibition of growth, photometric)
Method: as §2, with “Monographella nivalis (Microdochium nivale)/Liquid” for “Gaeumannomyces graminis/Liquid”, “(Foot Rot” for “(Take-all of”, “Conidia” for “Mycelial fragments”, “broth” for “broth Cp.33,”, “was” for “is”

[6] = test system: Glomerella lagenarium (Colletotrichum lagenarium); experiment: Glomerella lagenarium (Colletotrichum lagenarium) / liquid culture (anthracnose); assay type: cell-based; conditions: Colletotrichum orbiculare, PDB, 24° C., 3-4 days after application, read-out: control of Glomerella lagenarium (inhibition of growth, photometric)
Method: as §2, with “Glomerella lagenarium (Colletotrichum lagenarium)/Liquid” for “Gaeumannomyces graminis/Liquid”, “(Anthracnose): Conidia” for “(Take-all of Cereals): Mycelial fragments”, “broth” for “broth Cp.33,”, “was” for “is”, “is measured” for “was determined”, “3-4” for “4-5”

Nc1ncnn1-c1nc2cnccc2n1C1CC1 [Compound 1, 2-(1-cyclopropylimidazo[4,5-c]pyridin-2-yl)-1,2,4-triazol-3-amine]
≥ 80%: pest or weed control at 200 ppm (Pyrenophora teres) | inhibition at 20 ppm [1] | inhibition at 20 ppm [2] | inhibition at 20 ppm (Gaeumannomyces graminis) | inhibition at 20 ppm [3]

CCn1c(-n2ncnc2N)nc2cncc(-c3ccc(OC)nc3OC)c21 [Compound 56, 2-[7-(2,6-dimethoxypyridin-3-yl)-1-ethylimidazo[4,5-c]pyridin-2-yl]-1,2,4-triazol-3-amine]
≥ 80%: pest or weed control at 200 ppm [4] | pest or weed control at 200 ppm (Pyrenophora teres) | inhibition at 20 ppm [1] | inhibition at 20 ppm [2] | inhibition at 20 ppm [3]

CCn1c(-n2ncnc2N)nc2cncc(-c3ccc(OC)cc3OC)c21 [Compound 81, 2-[7-(2,4-dimethoxyphenyl)-1-ethylimidazo[4,5-c]pyridin-2-yl]-1,2,4-triazol-3-amine]
≥ 80%: pest or weed control at 200 ppm [4] | pest or weed control at 200 ppm (Pyrenophora teres) | inhibition at 20 ppm [1] | inhibition at 20 ppm [2] | inhibition at 20 ppm (Gaeumannomyces graminis) | inhibition at 20 ppm [3] | inhibition at 20 ppm [5]

CCn1c(-n2ncnc2N)nc2cncc(-c3cccc(C)c3C)c21 [Compound 82, 2-[7-(2,3-dimethylphenyl)-1-ethylimidazo[4,5-c]pyridin-2-yl]-1,2,4-triazol-3-amine]
≥ 80%: pest or weed control at 200 ppm [4] | pest or weed control at 200 ppm (Pyrenophora teres) | inhibition at 20 ppm [1] | inhibition at 20 ppm [2] | inhibition at 20 ppm (Gaeumannomyces graminis) | inhibition at 20 ppm [3]

CCn1c(-n2ncnc2N)nc2cncc(-c3cccc(Cl)c3Cl)c21 [Compound 87, 2-[7-(2,3-dichlorophenyl)-1-ethylimidazo[4,5-c]pyridin-2-yl]-1,2,4-triazol-3-amine]
≥ 80%: pest or weed control at 200 ppm [4] | pest or weed control at 200 ppm (Pyrenophora teres) | inhibition at 20 ppm [1] | inhibition at 20 ppm [2] | inhibition at 20 ppm (Gaeumannomyces graminis) | inhibition at 20 ppm [3] | inhibition at 20 ppm [5]

CCn1c(-n2ncnc2N)nc2cncc(-c3ccc(F)cc3C)c21 [Compound 92, 2-[1-ethyl-7-(4-fluoro-2-methylphenyl)imidazo[4,5-c]pyridin-2-yl]-1,2,4-triazol-3-amine]
≥ 80%: pest or weed control at 200 ppm (Pyrenophora teres) | inhibition at 20 ppm [1] | inhibition at 20 ppm [2] | inhibition at 20 ppm (Gaeumannomyces graminis) | inhibition at 20 ppm [3]

CCn1c(-n2ncnc2N)nc2cncc(-c3ccc(F)cc3OC)c21 [Compound 95, 2-[1-ethyl-7-(4-fluoro-2-methoxyphenyl)imidazo[4,5-c]pyridin-2-yl]-1,2,4-triazol-3-amine]
≥ 80%: pest or weed control at 200 ppm [4] | inhibition at 20 ppm [2] | inhibition at 20 ppm (Gaeumannomyces graminis) | inhibition at 20 ppm [3] | inhibition at 20 ppm [5]

CCn1c(-n2ncnc2N)nc2cncc(-c3cccc(Cl)c3C)c21 [Compound 99, 2-[7-(3-chloro-2-methylphenyl)-1-ethylimidazo[4,5-c]pyridin-2-yl]-1,2,4-triazol-3-amine]
≥ 80%: pest or weed control at 200 ppm [4] | pest or weed control at 200 ppm (Pyrenophora teres) | inhibition at 20 ppm [1] | inhibition at 20 ppm [2] | inhibition at 20 ppm (Gaeumannomyces graminis) | inhibition at 20 ppm [3]

Nc1ncnn1-c1nc2cncc(-c3ccccc3F)c2n1C1CCCCC1 [Compound 127, 2-[1-cyclohexyl-7-(2-fluorophenyl)imidazo[4,5-c]pyridin-2-yl]-1,2,4-triazol-3-amine]
≥ 80%: inhibition at 20 ppm (Gaeumannomyces graminis)

CCn1c(-n2ncnc2N)nc2cncc(C#N)c21 [Compound 128, 2-(5-amino-1,2,4-triazol-1-yl)-1-ethylimidazo[4,5-c]pyridine-7-carbonitrile]
≥ 80%: inhibition at 20 ppm (Gaeumannomyces graminis) | inhibition at 20 ppm [3]

CCCn1c(-n2ncnc2N)nc2cncc(C#N)c21 [Compound 129, 2-(5-amino-1,2,4-triazol-1-yl)-1-propylimidazo[4,5-c]pyridine-7-carbonitrile]
≥ 80%: inhibition at 20 ppm [6]

N#Cc1cncc2nc(-n3ncnc3N)n(C3CCCCC3)c12 [Compound 131, 2-(5-amino-1,2,4-triazol-1-yl)-1-cyclohexylimidazo[4,5-c]pyridine-7-carbonitrile]
≥ 80%: inhibition at 20 ppm [6]

CCCCCCO/N=C(\C)c1cncc2nc(-n3ncnc3N)n(CC)c12 [Compound 148]
≥ 80%: pest or weed control at 200 ppm (Pyrenophora teres) | inhibition at 20 ppm [6] | inhibition at 20 ppm [2] | inhibition at 20 ppm [3]

CCn1c(-n2ncnc2N)nc2cncc(/C(C)=N/OCC=C(C)C)c21 [Compound 157]
≥ 80%: pest or weed control at 200 ppm [4] | pest or weed control at 200 ppm (Pyrenophora teres) | inhibition at 20 ppm [6] | inhibition at 20 ppm [2] | inhibition at 20 ppm [3]

C/C=C/CO/N=C(\C)c1cncc2nc(-n3ncnc3N)n(CC)c12 [Compound 177]
≥ 80%: inhibition at 20 ppm [1] | inhibition at 20 ppm [2] | inhibition at 20 ppm [3] | inhibition at 20 ppm [5]

CCCn1c(-n2ncnc2N)nc2cncc(/C(C)=N/OC/C=C/Cl)c21 [Compound 183]
≥ 80%: pest or weed control at 200 ppm [4] | pest or weed control at 200 ppm (Pyrenophora teres) | inhibition at 20 ppm [1] | inhibition at 20 ppm [2] | inhibition at 20 ppm (Gaeumannomyces graminis) | inhibition at 20 ppm [3] | inhibition at 20 ppm [5]

CCCn1c(-n2ncnc2N)nc2cncc(/C(C)=N/OC/C=C(\C)Cl)c21 [Compound 185]
≥ 80%: pest or weed control at 200 ppm (Pyrenophora teres) | inhibition at 20 ppm [1] | inhibition at 20 ppm [2] | inhibition at 20 ppm [3] | inhibition at 20 ppm [5]

CCCn1c(-n2ncnc2N)nc2cncc(/C(C)=N/OCC=C(Cl)Cl)c21 [Compound 187]
≥ 80%: pest or weed control at 200 ppm [4] | inhibition at 20 ppm [2] | inhibition at 20 ppm (Gaeumannomyces graminis) | inhibition at 20 ppm [3]

CCCn1c(-n2ncnc2N)nc2cncc(/C(C)=N/OCC=C(C)C)c21 [Compound 189]
≥ 80%: pest or weed control at 200 ppm [4] | inhibition at 20 ppm [2] | inhibition at 20 ppm [3] | inhibition at 20 ppm [5]
